# Experimental data taken from patent US11648223B2, “Receptor subtype and function selective retinoid and rexinoid compounds in combination with immune modulators for cancer immunotherapy” (Io Therapeutics, Inc., priority 2016, dated 2023).
# Experiments:
# [1] = tested on: B16F10 tumor cells; experiment: B16F10 melanoma engrafted C57BL/6 mice, survival; format: in vivo
# Protocol: The anti-tumor effects of anti-CTLA-4 antibody treatment combined with 10 nM […] agonist (AGN204647 (IRX4647)) are examined in C57BL/6 mice engrafted with B16F10 tumor cells.
# [2] = tested on: FoxP3+ Treg cells; experiment: formation of FoxP3+ Treg cells (FIG. 3); format: cell-based
# [3] = tested on: Th 17 cells; experiment: formation of Th17 cells (FIG. 3); format: cell-based
# [4] = tested on: Treg cell; experiment: in vitro Treg cell differentiation from naive CD4+ T cells (FoxP3-GFP, flow cytometry); format: cell-based, mouse; settings: in vitro assay
# Protocol: (§1) To determine whether a RARα selective agonist could affect T cell differentiation, T cells were incubated with a RARα selective agonist to determine its effect on Foxp3 expression. Naive CD4^+ […] cells were purified from a Foxp3-GFP mouse using flow cytometry by sorting and isolating based upon a GFP^+ phenotype. These cells were activated polyclonally with αCD3 in vitro in the presence of IL-2 and TGF-β. These cells were then cultured in media with various concentrations of compound 5183 (a RARα selective agonist) and the expression of FoxP3-GFP was analyzed by flow cytometry. The RARα selective agonist compound 5183 enhanced differentiation of immunosuppressive Treg cells and inhibited differentiation of inflammatory TH17 cells from naëve T cells in vitro (Table 2).
# [5] = tested on: CD4+ T cells; experiment: in vivo T cell differentiation in mice (FoxP3 expression in CD4+ T cells of blood and spleen); design: species or system mouse; settings: in vivo assay
# Protocol: To expand on the finding above, the in vivo effects of a RARα selective agonist on T cell differentiation was evaluated in a mouse model. Mice were treated with 100 μg of compound 5183 (a RARα agonist) or an equivalent volume of DMSO (vehicle control) every other day for 10 days. Lympocytes from the blood and spleen were then isolated and FoxP3 expression in CD4^+ T cells was assessed.
# [6] = tested on: Th17 cell; experiment: in vitro Th17 cell differentiation from naive T cells; format: cell-based, mouse; settings: in vitro assay
# Protocol: as §1
# [7] = combination with anti-CTLA-4 antibody
structure (smiles),measurement,setting,value
CC1(C)CCC(C)(C)c2cc(C(/C=C/c3cccc(C(=O)O)c3)=N/O)ccc21 [AGN204647],survival rate at 50 days,"[1]; agent alone, vehicles only 0%",30%
same,survival at 50 days,[1]; combination of anti-CTLA-4 antibody and 10 nM RARγ agonist AGN204647,100%
same,resistance of surviving mice to tumor re-challenge,[1]; [7],resistant to re-challenge with twice the dose of live tumor cells
same,toxicity,[1]; [7],without signs of acute or delayed toxicity
CC(/C=C/[C@@H]1C[C@]1(C)c1ccc2c(c1)C(C)(C)CCC2(C)C)=C\C(=O)O [IRX4204],formation of FoxP3+ Treg cells,[2],promotes the formation of FoxP3+ Treg cells
same,formation of Th 17 cells,[3],inhibits the formation of Th 17 cells
CCOc1c(Br)cc(C(=O)Nc2ccc(C(=O)O)cc2)cc1C(=O)c1ccc(C)cc1 [AGN196996],Treg cell numbers,[4],decreases Treg cell numbers
same,Th17 cell numbers,[5],increases Th17 cell numbers
same,Treg cell numbers,[5],decreases Treg cell numbers
same,Th17 cell numbers,[6],increases Th17 cell numbers
